For this experiment, the system named is human blood. Put plainly: In vitro anticoagulant effect on human blood (APTT, CT2). Type of experiment: biochemical. The following applies: Table 2; concentration of the compound corresponding to 2 times the APTT of the blank control; human plasma. As for the experimental part:
Test Example 2: Determination of In Vitro Anticoagulant Effect of the Compounds of the Present Invention on Human Blood
1. Experimental Materials
Plasma: Human blood was collected in blood collection tubes containing no anticoagulant, and then 3.8% sodium citrate (volume ratio 1:9) was added. The tubes were centrifuged at 2500 rpm for 10 minutes at room temperature, and then the plasma was collected and stored at −80° C.:
Reagents: APTT reagent (Activated partial thromboplastin time assay kit, SIEMENS, Art. No. B4218-1), calcium chloride solution;
Instrument: Coagulation instrument (SYSMEX, CA-500).
The divided plasma was melted at room temperature and mixed well. 10000 μM the test compound dissolved in 100% DMSO was diluted to 3000, 300, 200, 150, 75, 30, 10, 3, 0.3 μM with 100% DMSO, and the blank was 100% DMSO. The reagent, plasma, and compound were placed in corresponding positions in the coagulation instrument, and APTT detection of the compound was carried out.
Curve fitting was carried out by graphpad and CT2 was calculated, i.e., the concentration of the compound corresponding to 2 times the APTT of the blank control.
As for `[2H]c1c([2H])c([2H])c(C([2H])([2H])[C@@H](C(=O)Nc2ccc(C(=O)O)cc2)n2cc(OC)c(-c3cc(Cl)ccc3C(C)=O)cc2=O)c([2H])c1[2H]` [Example 181, 4-[[(2S)-2-[4-(2-acetyl-5-chloro-phenyl)-5-methoxy-2-oxo-1-pyridyl]-3,3-dideutero-3-(2,3,4,5,6-pentadeuterophenyl)propionyl]amino]benzoic acid], the “CT2 (compound concentration doubling APTT)” value (from here on “CT2”) amounted to 2.3 µM.

As for `COCCC(C(=O)Nc1ccc2[nH]c(C(=O)O)cc2c1)n1cc(OC)c(-c2cc(Cl)ccc2C(C)=O)cc1=O` (stereo not shown) [Example 1, 5-(2-(4-(2-acetyl-5-chlorophenyl)-5-methoxy-2-oxopyridin-1(2H)-yl)-4-methoxybutanamido)-1H-indole-2-carboxylic acid], the “CT2” value was 4.4 µM.

Regarding `CCC(=O)c1ccc(Cl)cc1-c1cc(=O)n([C@H](CCOC(C)(C)C)C(=O)Nc2ccc(C(=O)O)cc2)cc1OC` [Example 109, (R)-4-(4-(tert-butoxy)-2-(4-(5-chloro-2-propionylphenyl)-5-methoxy-2-oxopyridin-1(2H)-yl)butanamido)benzoic acid], the “CT2” value is over 10000 µM.

In the case of `[2H]C([2H])([2H])C(=O)c1ccc(Cl)cc1-c1cc(=O)n([C@H](Cc2ccccc2)C(=O)Nc2ccc(C(=O)O)cc2)cc1OC` [Example 184, 4-[[(2R)-2-[4-[5-chloro-2-(2,2,2-trideuteroacetyl)phenyl]-5-methoxy-2-oxo-1-pyridyl]-3-phenyl-propionyl]amino]benzoic acid], the “CT2” value is over 10000 µM.

As to `COc1cn([C@@H](Cc2ccccc2)C(=O)Nc2ccc(C(N)=O)cc2)c(=O)cc1-c1cc(Cl)ccc1C(C)=O` [Example 11, (S)-4-(2-(4-(2-acetyl-5-chlorophenyl)-5-methoxy-2-oxopyridin-1(2H)-yl)-3-phenylpropanamido)benzamide], the “CT2” value amounted to 4.2 µM.

Consider `CCC(=O)c1ccc(Cl)cc1-c1cc(=O)n(C(Cc2ccccc2)C(=O)Nc2ccc(C(=O)O)cc2)cc1OC` (stereo not shown) [Example 8, 4-(2-(4-(5-chloro-2-propionylphenyl)-5-methoxy-2-oxopyridin-1(2H)-yl)-3-phenylpropanamido)benzoic acid], for which the “CT2” value is 6.4 µM.

`CCC(=O)c1ccc(Cl)cc1-c1cc(=O)n(C(Cc2ccn(C3CC3)n2)C(=O)Nc2ccc(C(=O)O)cc2)cc1OC` (stereo not shown) [Example 91, 4-(2-(4-(5-chloro-2-propionylphenyl)-5-methoxy-2-oxopyridin-(2H)-yl)-3-(1-cyclopropyl-1H-pyrazol-3-yl)propanamido)benzoic acid]: the “CT2” value is 2.1 µM.

With `COc1cn(C(Cc2ccn(C3CC3)n2)C(=O)Nc2ccc3ncncc3c2)c(=O)cc1-c1cc(Cl)ccc1C(C)=O` (stereo not shown) [Example 98, 2-(4-(2-acetyl-5-chlorophenyl)-5-methoxy-2-oxopyridin-1(2H)-yl)-3-(1-cyclopropyl-1H-pyrazol-3-yl)-N-(quinazolin-6-yl)propanamide], the “CT2” value worked out at 7.6 µM.

As to `COc1cn(C(Cc2ccn(C)n2)C(=O)Nc2ccc(C(=O)O)cc2)c(=O)cc1-c1cc(Cl)ccc1C(C)=O` (stereo not shown) [Example 100, 4-(2-(4-(2-acetyl-5-chlorophenyl)-5-methoxy-2-oxopyridin-(2H)-yl)-3-(1-methyl-1H-pyrazol-3-yl)propanamido)benzoic acid], the “CT2” value came to 3.3 µM.

Regarding `COc1cn([C@H](CCOC2CCC2)C(=O)Nc2ccc(C(=O)O)cc2)c(=O)cc1-c1cc(Cl)ccc1C(C)=O` [Example 163, (R)-4-(2-(4-(2-acetyl-5-chlorophenyl)-5-methoxy-2-oxopyridin-1(2H)-yl)-4-cyclobutoxybutanamido)benzoic acid], the “CT2” value is over 10000 µM.

(Values after patent US11084808B2, “Oxopicolinamide derivative, preparation method therefor and pharmaceutical use thereof” (Jiangsu Hengrui Medicine Co., Ltd., priority 2016, dated 2021).)
